The mortality is the percentage killed.

The record followed here is patent US12528788B2, “Pesticidally active benzene- and azine-amide compounds” (SYNGENTA CROP PROTECTION AG, priority 2018, dated 2026).

Holding throughout (format): in vivo
In assay [1] the test system is Plutella xylostella. Description: Example B14: Plutella xylostella (diamondback moth), 96-well artificial diet. The settings on record: 216 h, application rate of 500 ppm, 9 days after infestation. The method, then:
Example B14: Plutella xylostella (Diamondback Moth)
96-well microtiter plates containing artificial diet were treated with aqueous test solutions, prepared from 10′000 ppm DMSO stock solutions, by a liquid handling robot. After drying, eggs (˜30 per well) were infested onto a netted lid which was suspended above the diet. The eggs hatch and L1 larvae move down to the diet. The samples were assessed for mortality 9 days after infestation.

The test system of another assay is Diabrotica balteata. Description: Example B1: Diabrotica balteata (corn root worm), maize sprouts sprayed, L2 larvae. The conditions noted are these: 96 h, application rate of 200 ppm, 4 days after infestation, L2 larvae on maize sprouts, read-out: control in at least one of the two categories (mortality or growth inhibition). On the procedure: Example B1: Diabrotica balteata (Corn Root Worm)
Maize sprouts placed onto an agar layer in 24-well microtiter plates were treated with aqueous test solutions prepared from 10′000 ppm DMSO stock solutions by spraying. After drying, the plates were infested with L2 larvae (6 to 10 per well). The samples were assessed for mortality and growth inhibition in comparison to untreated samples 4 days after infestation.

For assay [2], the system named is Plutella xylostella. Description: Example B5: Plutella xylostella (diamond back moth), artificial diet, 24-well, eggs. The conditions noted are these: 192 h, application rate of 200 ppm, 8 days after infestation, read-out: control in at least one of the two categories (mortality or growth inhibition). On the procedure: Example B5: Plutella xylostella (Diamond Back Moth)
24-well microtiter plates with artificial diet were treated with aqueous test solutions prepared from 10′000 ppm DMSO stock solutions by pipetting. After drying, Plutella eggs were pipetted through a plastic stencil onto a gel blotting paper and the plate was closed with it. The samples were assessed for mortality and growth inhibition in comparison to untreated samples 8 days after infestation.

The test system of a further assay is Spodoptera littoralis. Nature of the assay: Example B9: Spodoptera littoralis (Egyptian cotton leaf worm), cotton leaf discs sprayed, L1 larvae. The conditions noted are these: foliar, 72 h, application rate of 200 ppm, 3 days after infestation, read-out: control in at least one of the three categories (mortality, anti-feedant effect or growth inhibition).
A further assay has as its system Chilo suppressalis. Description: Example B4: Chilo suppressalis (striped rice stemborer), artificial diet, L2 larvae. The settings on record: 144 h, application rate of 200 ppm, 6 days after infestation, read-out: control in at least one of the three categories (mortality, anti-feedant effect or growth inhibition). On the procedure:
Example B4: Chilo suppressalis (Striped Rice Stemborer)
24-well microtiter plates with artificial diet were treated with aqueous test solutions prepared from 10′000 ppm DMSO stock solutions by pipetting. After drying, the plates were infested with L2 larvae (6-8 per well). The samples were assessed for mortality, anti-feeding effect, and growth inhibition in comparison to untreated samples 6 days after infestation. Control of Chilo suppressalis by a test sample is given when at least one of the categories mortality, anti-feedant effect, and growth inhibition is higher than the untreated sample.

In a further assay the test system is Myzus persicae. Description: Example B13: Myzus persicae (green peach aphid), 96-well sucrose solution. The conditions noted are these: 120 h, application rate of 50 ppm, 5 days after infestation. From the text:
Example B13: Myzus persicae (Green Peach Aphid)
Test compounds prepared from 10′000 ppm DMSO stock solutions were applied by a liquid handling robot into 96-well microtiter plates and mixed with a sucrose solution. Parafilm was stretched over the 96-well microtiter plate and a plastic stencil with 96 holes was placed onto the plate. Aphids were sieved into the wells directly onto the Parafilm. The infested plates were closed with a gel blotting card and a second plastic stencil and then turned upside down. The samples were assessed for mortality 5 days after infestation.

`CC(c1cccnc1-c1ncccn1)N(CC1CC1)C(=O)c1cc(C(F)(F)F)cc(C(F)(F)F)c1` (stereo not drawn) [Compound P1, N-(cyclopropylmethyl)-N-[1-(2-pyrimidin-2-yl-3-pyridyl)ethyl]-3,5-bis(trifluoromethyl)benzamide]: the mortality at 500 ppm with Plutella xylostella [1] was at least 80%. Besides, the percent control (mortality or growth inhibition) at 200 ppm in the assay with Diabrotica balteata is at least 80%.
Regarding `CC(c1cnccc1-c1ncccn1)N(CC1CC1)C(=O)c1cc(C(F)(F)F)cc(C(F)(F)F)c1` (stereo not drawn) [Compound P2, N-(cyclopropylmethyl)-N-[1-(4-pyrimidin-2-yl-3-pyridyl)ethyl]-3,5-bis(trifluoromethyl)benzamide], the mortality at 500 ppm with Plutella xylostella [1] is at least 80%. Further, in the assay on Plutella xylostella [2], the percent control (mortality or growth inhibition) at 200 ppm was at least 80%.
In turn, `CC(c1ncccc1-c1ncccn1)N(CC1CC1)C(=O)c1cc(C(F)(F)F)cc(C(F)(F)F)c1` (stereo not drawn) [Compound P3, N-(cyclopropylmethyl)-N-[1-(3-pyrimidin-2-yl-2-pyridyl)ethyl]-3,5-bis(trifluoromethyl)benzamide] had a mortality at 500 ppm in the assay on Plutella xylostella [1] of at least 80%. The percent control (mortality or growth inhibition) at 200 ppm in the assay with Diabrotica balteata and with Plutella xylostella [2] was at least 80% throughout. Also, the percent control (mortality, anti-feedant effect or growth inhibition) at 200 ppm in the assay with Spodoptera littoralis was at least 80%.
Turning to `CC(c1ncncc1-c1ncccn1)N(CC1CC1)C(=O)c1cc(C(F)(F)F)cc(C(F)(F)F)c1` (stereo not drawn) [Compound P6, N-(cyclopropylmethyl)-N-[1-(5-pyrimidin-2-ylpyrimidin-4-yl)ethyl]-3,5-bis(trifluoromethyl)benzamide], the mortality at 500 ppm with Plutella xylostella [1] was at least 80%. Besides, the percent control (mortality or growth inhibition) at 200 ppm in the assay on Diabrotica balteata and with Plutella xylostella [2] was at least 80% throughout.
As for `CC(c1nccnc1-c1ccccn1)N(CC1CC1)C(=O)c1cc(C(F)(F)F)cc(C(F)(F)F)c1` (stereo not drawn) [Compound P7, N-(cyclopropylmethyl)-N-[1-[3-(2-pyridyl)pyrazin-2-yl]ethyl]-3,5-bis(trifluoromethyl)benzamide], the mortality at 500 ppm in the assay with Plutella xylostella [1] is at least 80%. Besides, the percent control (mortality or growth inhibition) at 200 ppm in the assay with Diabrotica balteata and in the assay with Plutella xylostella [2] was at least 80% each time. Moreover, the percent control (mortality, anti-feedant effect or growth inhibition) at 200 ppm with Spodoptera littoralis was at least 80%.
As for `CC(c1cnc(Cl)cc1-c1ncccn1)N(CC1CC1)C(=O)c1cc(C(F)(F)F)cc(C(F)(F)F)c1` (stereo not drawn) [Compound P8, N-[1-(6-chloro-4-pyrimidin-2-yl-3-pyridyl)ethyl]-N-(cyclopropylmethyl)-3,5-bis(trifluoromethyl)benzamide], the mortality at 500 ppm with Plutella xylostella [1] was at least 80%. Moreover, the percent control (mortality or growth inhibition) at 200 ppm in the assay on Plutella xylostella [2] was at least 80%.
In turn, `CC(c1nc(F)ccc1-c1ncccn1)N(CC1CC1)C(=O)c1cc(C(F)(F)F)cc(C(F)(F)F)c1` (stereo not drawn) [Compound P9, N-(cyclopropylmethyl)-N-[1-(6-fluoro-3-pyrimidin-2-yl-2-pyridyl)ethyl]-3,5-bis(trifluoromethyl)benzamide] gave a mortality at 500 ppm in the assay on Plutella xylostella [1] of at least 80%. Also, the percent control (mortality or growth inhibition) at 200 ppm in the assay on Diabrotica balteata and with Plutella xylostella [2] was at least 80% throughout. In addition, the percent control (mortality, anti-feedant effect or growth inhibition) at 200 ppm in the assay with Spodoptera littoralis was at least 80%.
The compound `CC(c1cnc(C(F)(F)F)cc1-c1ncccn1)N(CC1CC1)C(=O)c1cc(C(F)(F)F)cc(C(F)(F)F)c1` (stereo not drawn) [Compound P10, N-(cyclopropylmethyl)-N-[1-[4-pyrimidin-2-yl-6-(trifluoromethyl)-3-pyridyl]ethyl]-3,5-bis(trifluoromethyl)benzamide] registered a mortality at 500 ppm in the assay with Plutella xylostella [1] of at least 80%. Further, the percent control (mortality, anti-feedant effect or growth inhibition) at 200 ppm in the assay on Spodoptera littoralis is at least 80%. In addition, in the assay with Plutella xylostella [2], the percent control (mortality or growth inhibition) at 200 ppm is at least 80%.
In the case of `CC(c1nccnc1-c1ccccn1)N(CC1CC1)C(=O)c1cc(Cl)cc(C(F)(F)F)c1` (stereo not drawn) [Compound P11, 3-chloro-N-(cyclopropylmethyl)-N-[1-[3-(2-pyridyl)pyrazin-2-yl]ethyl]-5-(trifluoromethyl)benzamide], the mortality at 500 ppm in the assay with Plutella xylostella [1] was at least 80%. The percent control (mortality or growth inhibition) at 200 ppm in the assay with Diabrotica balteata and in the assay with Plutella xylostella [2] was at least 80% in each case. The percent control (mortality, anti-feedant effect or growth inhibition) at 200 ppm in the assay on Spodoptera littoralis was at least 80%.
`CC(NC(=O)c1cc(C(F)(F)F)cc(C(F)(F)F)c1)c1nccnc1-c1ncccc1F` (stereo not drawn) [Compound P13, N-[1-[3-(3-fluoro-2-pyridyl)pyrazin-2-yl]ethyl]-3,5-bis(trifluoromethyl)benzamide]: the percent control (mortality or growth inhibition) at 200 ppm in the assay on Diabrotica balteata and in the assay on Plutella xylostella [2] was at least 80% in each case. Moreover, the percent control (mortality, anti-feedant effect or growth inhibition) at 200 ppm with Spodoptera littoralis and in the assay on Chilo suppressalis was at least 80% throughout.
For the compound `CC(NC(=O)c1cc(C(F)(F)F)cc(C(F)(F)F)c1)c1nccnc1-c1ccccn1` (stereo not drawn) [Compound P25, N-[1-[3-(2-pyridyl)pyrazin-2-yl]ethyI]-3,5-bis(trifluoromethyl)benzamide], in the assay with Plutella xylostella [1], the mortality at 500 ppm is at least 80%. In the assay with Myzus persicae, the mortality at 50 ppm was at least 80%. In addition, the percent control (mortality or growth inhibition) at 200 ppm in the assay on Diabrotica balteata and with Plutella xylostella [2] was at least 80% each time. Also, in the assay on Spodoptera littoralis, the percent control (mortality, anti-feedant effect or growth inhibition) at 200 ppm was at least 80%.
For the compound `CC(c1ccccc1-c1ncccn1)N(CC1CC1)C(=O)c1cc(C(F)(F)F)cc(C(F)(F)F)c1` (stereo not drawn) [Compound P26, N-(cyclopropylmethyl)-N-[1-(2-pyrimidin-2-ylphenyl)ethyl]-3,5-bis(trifluoromethyl)benzamide], the mortality at 500 ppm with Plutella xylostella [1] was at least 80%. The percent control (mortality or growth inhibition) at 200 ppm in the assay with Plutella xylostella [2] is at least 80%.
The compound `CC(c1ccccc1-c1ccccn1)N(CC1CC1)C(=O)c1cc(Cl)cc(C(F)(F)F)c1` (stereo not drawn) [Compound P27, 3-chloro-N-(cyclopropylmethyl)-N-[1-[2-(2-pyridyl)phenyl]ethyl]-5-(trifluoromethyl)benzamide] returned a mortality at 500 ppm in the assay on Plutella xylostella [1] of at least 80%. Besides, the percent control (mortality or growth inhibition) at 200 ppm in the assay with Plutella xylostella [2] is at least 80%.
`CC(c1ccccc1-c1ccccn1)N(CC1CC1)C(=O)c1cc(C(F)(F)F)cc(C(F)(F)F)c1` (stereo not drawn) [Compound P28, N-(cyclopropylmethyl)-N-[1-[2-(2-pyridyl)phenyl]ethyl]-3,5-bis(trifluoromethyl)benzamide] showed a mortality at 500 ppm in the assay on Plutella xylostella [1] of at least 80%.
Regarding `CC(NC(=O)c1cc(OCC(F)F)cc(C(F)(F)F)c1)c1nccnc1-c1ncc(C2CC2)cn1` (stereo not drawn) [Compound P32, N-[1-[3-(5-cyclopropylpyrimidin-2-yl)pyrazin-2-yl]ethyl]-3-(2,2-difluoroethoxy)-5-(trifluoromethyl)benzamide], the percent control (mortality, anti-feedant effect or growth inhibition) at 200 ppm in the assay on Spodoptera littoralis and with Chilo suppressalis was at least 80% in each case. Besides, in the assay with Plutella xylostella [2], the percent control (mortality or growth inhibition) at 200 ppm is at least 80%.
With `CC(NC(=O)c1cc(OC(F)F)cc(C(F)(F)F)c1)c1nccnc1-c1ncc(C2CC2)cn1` (stereo not drawn) [Compound P33, N-[1-[3-(5-cyclopropylpyrimidin-2-yl)pyrazin-2-yl]ethyl]-3-(difluoromethoxy)-5-(trifluoromethyl)benzamide], the percent control (mortality or growth inhibition) at 200 ppm in the assay with Diabrotica balteata and in the assay on Plutella xylostella [2] was at least 80% each time. The percent control (mortality, anti-feedant effect or growth inhibition) at 200 ppm in the assay with Spodoptera littoralis and in the assay on Chilo suppressalis was at least 80% each time.
On to `CC(NC(=O)c1cc(OC(F)F)cc(C(F)(F)F)c1)c1nccnc1-c1ccc(F)cn1` (stereo not drawn) [Compound P35, 3-(difluoromethoxy)-N-[1-[3-(5-fluoro-2-pyridyl)pyrazin-2-yl]ethyl]-5-(trifluoromethyl)benzamide], for which, in the assay on Plutella xylostella [2], the percent control (mortality or growth inhibition) at 200 ppm is at least 80%.
As to `CC(NC(=O)c1cc(C(F)(F)F)cc(C(F)(F)F)c1)c1nccnc1-c1ccc(Cl)cn1` (stereo not drawn) [Compound P36, N-[1-[3-(5-chloro-2-pyridyl)pyrazin-2-yl]ethyl]-3,5-bis(trifluoromethyl)benzamide], in the assay with Chilo suppressalis, the percent control (mortality, anti-feedant effect or growth inhibition) at 200 ppm was at least 80%.
